Where only a bound is given, the exact number is not on record here.

These results are taken from US9730914B2, “3,5-diaminopyrazole kinase inhibitors” (Axikin Pharmaceuticals, Inc., priority 2014, dated 2017).

For one assay, the target named is T1, JAK2 (Homo sapiens, UniProt O60674).
T1 construct: made in house; host or cells: E. coli BL21-derived host (T7 phage) or HEK-293
Nature of the assay: Kinase competition binding assay (Kd, qPCR readout), JAK2. The note with it: for Kd: Kd class, JAK2, read-out: JAK2 Activity Level; for RCK:JAK2 selectivity ratio: ratio Kd (JAK2): Kd(RCK). The method, boiled down:
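Competition binding: DNA-tagged kinase (T7 phage or HEK-293-expressed), immobilized biotinylated ligand beads and compound in SeaBlock/PBS/Tween/DTT buffer, 1 hour at room temperature; bound kinase eluted and quantified by qPCR. Kd from 11-point 3-fold dilution, top 30,000 nM typically, final DMSO 1%.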
In general terms: In qPCR the cycle at which signal appears reflects the starting amount.

The target of another assay is T2, JAK3 (Homo sapiens, UniProt P52333).
T2 construct: made in house; host or cells: E. coli BL21-derived host (T7 phage) or HEK-293
Nature of the assay: Kinase competition binding assay (Kd, qPCR readout), JAK3. The note with it: for Kd: Kd class, JAK3, read-out: JAK3 Activity Level; for RCK:JAK3 selectivity ratio: ratio Kd (JAK3): Kd (RCK). The method, boiled down: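 Competition binding in which kinase, either T7 phage-tagged or HEK-293-expressed and DNA-tagged, was exposed to immobilized biotinylated ligand and test compound for 1 h at room temperature. Bead-bound kinase was eluted and quantified by qPCR. Kd came from 11-point 3-fold dilutions, top concentration 30,000 nM and 1% DMSO, repeated lower if below 0.5 nM.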

In assay [1] the target is T3, kinase domain protein of RC kinase (RCK) (Homo sapiens, UniProt Q56UN5).
T3 construct: made in house; host or cells: E. coli BL21-derived host (T7 phage) or HEK-293
T3 sequence (Q56UN5 1061-1324 limits assumed): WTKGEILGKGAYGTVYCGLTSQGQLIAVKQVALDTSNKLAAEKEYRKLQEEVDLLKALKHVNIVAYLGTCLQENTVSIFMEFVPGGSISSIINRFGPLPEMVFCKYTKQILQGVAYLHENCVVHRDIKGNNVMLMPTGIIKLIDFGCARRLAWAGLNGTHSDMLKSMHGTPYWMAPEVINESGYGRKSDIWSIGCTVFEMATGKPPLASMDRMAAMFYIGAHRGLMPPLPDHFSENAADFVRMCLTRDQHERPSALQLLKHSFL
Nature of the assay: Kinase competition binding assay (Kd, qPCR readout), RC kinase. The note with it: Kd class, read-out: RCK Activity Level. The method, boiled down: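 Competition binding: DNA-tagged kinase (T7 phage or HEK-293-expressed) plus immobilized biotinylated ligand beads and compound, 1 h at room temperature, 1% DMSO. Bead-bound kinase eluted and quantified by qPCR. Kd from 11-point 3-fold dilution, top 30,000 nM, retested lower if below 0.5 nM.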

T1 sequence (O60674 840-1132 limits assumed): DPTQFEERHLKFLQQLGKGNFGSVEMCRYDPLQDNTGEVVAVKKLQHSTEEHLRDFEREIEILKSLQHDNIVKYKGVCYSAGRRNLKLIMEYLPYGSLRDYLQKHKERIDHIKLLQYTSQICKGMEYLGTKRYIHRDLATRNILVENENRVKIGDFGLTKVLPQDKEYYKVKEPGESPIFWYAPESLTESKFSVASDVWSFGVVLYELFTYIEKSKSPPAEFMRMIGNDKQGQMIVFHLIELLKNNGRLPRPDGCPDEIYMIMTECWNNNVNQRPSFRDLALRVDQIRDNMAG
T2 sequence (P52333 811-1124 limits assumed): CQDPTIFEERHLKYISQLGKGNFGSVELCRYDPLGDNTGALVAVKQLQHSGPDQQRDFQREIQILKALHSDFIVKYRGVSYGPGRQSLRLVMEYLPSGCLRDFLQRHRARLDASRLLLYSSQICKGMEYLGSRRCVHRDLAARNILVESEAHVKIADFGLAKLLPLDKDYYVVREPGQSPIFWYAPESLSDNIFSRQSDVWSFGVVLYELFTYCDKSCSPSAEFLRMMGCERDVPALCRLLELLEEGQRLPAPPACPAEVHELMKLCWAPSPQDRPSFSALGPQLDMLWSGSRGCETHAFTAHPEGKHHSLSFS

As for `Cc1cc(CNc2[nH]nc(Nc3ccc(N4CCC(C(C)C)CC4)cc3)c2C(N)=O)cc(C)c1O` [Compound 58, 5-((4-hydroxy-3,5-dimethylbenzyl)amino)-3-((4-(4-isopropylpiperidin-1-yl)phenyl)amino)-1H-pyrazole-4-carboxamide], at JAK2, the Kd was more than 1000 nM and the “RCK:JAK2 selectivity ratio” value is listed as “B (B represents 10<Kd(JAK2): Kd (RCK)<100)”. Besides, on JAK3, the Kd was more than 1000 nM and the “RCK:JAK3 selectivity ratio” value is “B (B represents 10<Kd (JAK3): Kd (RCK)<100)”. Besides, the Kd in assay [1] lay in the range of 100 to 1000 nM.
On to `Cc1cc(CNc2[nH]nc(Nc3ccc(N4CCOCC4=O)cc3)c2C(N)=O)cc(C)c1O` [Compound 59, 5-((4-hydroxy-3,5-dimethylbenzyl)amino)-3-((4-(3-oxomorpholino)phenyl)amino)-1H-pyrazole-4-carboxamide], for which the values for the Kd (on JAK2; on JAK3; in assay [1]) were more than 1000 nM, more than 1000 nM and 100 to 1000 nM, respectively. Also, on JAK2, the “RCK:JAK2 selectivity ratio” value is “B (B represents 10<Kd(JAK2): Kd (RCK)<100)”. Besides, the “RCK:JAK3 selectivity ratio” value at JAK3 is given as “B (B represents 10<Kd (JAK3): Kd (RCK)<100)”.
Take `Cc1cc(CNc2[nH]nc(Nc3ccc(CC#N)cc3)c2C(N)=O)cc(C)c1O` [Compound 61, 3-((4-(cyanomethyl)phenyl)amino)-5-((4-hydroxy-3,5-dimethylbenzyl)amino)-1H-pyrazole-4-carboxamide]: the Kd (at JAK2; at JAK3; in assay [1]) was more than 1000 nM each time. For the same compound, the “RCK:JAK2 selectivity ratio” value on JAK2 is recorded as “C (C represents 1<Kd (JAK2): Kd (RCK)<10)”. At JAK3, the “RCK:JAK3 selectivity ratio” value was “C (C represents 1<Kd (JAK3): Kd (RCK)<10)”.
For the compound `Cc1cc(CNc2[nH]nc(Nc3ccc(NC(=O)c4ccc(C(F)(F)F)cc4)cc3)c2C(N)=O)cc(C)c1O` [Compound 62, 5-((4-hydroxy-3,5-dimethylbenzyl)amino)-3-((4-(4-(trifluoromethyl)benzamido)phenyl)amino)-1H-pyrazole-4-carboxamide], the Kd on JAK2 is more than 1000 nM; at JAK3, more than 1000 nM; in assay [1], 100 to 1000 nM. For the same compound, at JAK2, the “RCK:JAK2 selectivity ratio” value is “B (B represents 10<Kd(JAK2): Kd (RCK)<100)”. For the same compound, on JAK3, the “RCK:JAK3 selectivity ratio” value is reported as “B (B represents 10<Kd (JAK3): Kd (RCK)<100)”.
In the case of `Cc1cc(CNc2[nH]nc(Nc3ccc(N4CCC(C)CC4)cc3)c2C(N)=O)cc(C)c1O` [Compound 63, 5-((4-hydroxy-3,5-dimethylbenzyl)amino)-3-((4-(4-methylpiperidin-1-yl)phenyl)amino)-1H-pyrazole-4-carboxamide], the Kd is more than 1000 nM on JAK2, more than 1000 nM at JAK3 and 100 to 1000 nM in assay [1]. The “RCK:JAK2 selectivity ratio” value at JAK2 is “B (B represents 10<Kd(JAK2): Kd (RCK)<100)”. Besides, the “RCK:JAK3 selectivity ratio” value at JAK3 is listed as “B (B represents 10<Kd (JAK3): Kd (RCK)<100)”.
Consider `Cc1cc(CNc2[nH]nc(Nc3ccc(-n4ccnc4)cc3)c2C(N)=O)cc(C)c1O` [drawing 179, reference compound], for which the Kd (on JAK2; on JAK3; in assay [1]) was less than 50 nM in each case.
In the case of `COc1ccc(Nc2n[nH]c(NCc3cc(C)c(O)c(C)c3)c2C(N)=O)cc1` [drawing 180, reference compound], the Kd (at JAK2; at JAK3; in assay [1]) was less than 50 nM each time.
Turning to `Cc1cc(CNc2[nH]nc(Nc3cccc(Cl)c3)c2C(N)=O)cc(C)c1O` [reference compound], the Kd (on JAK2; at JAK3; in assay [1]) was more than 1000 nM in each case. For the same compound, the “RCK:JAK2 selectivity ratio” value on JAK2 was “C (C represents 1<Kd (JAK2): Kd (RCK)<10)”. In addition, the “RCK:JAK3 selectivity ratio” value on JAK3 was “C (C represents 1<Kd (JAK3): Kd (RCK)<10)”.
Regarding `NC(=O)c1c(Nc2ccc(N3CCOCC3)cc2)n[nH]c1NCc1ccc(O)cc1` [reference compound], the Kd (at JAK2; at JAK3; in assay [1]) was less than 50 nM each time. Also, at JAK2, the “RCK:JAK2 selectivity ratio” value is “D (D represents Kd(JAK2): Kd (RCK)<1)”. Further, the “RCK:JAK3 selectivity ratio” value on JAK3 is recorded as “C (C represents 1<Kd (JAK3): Kd (RCK)<10)”.
In the case of `NC(=O)c1c(Nc2ccc(S(N)(=O)=O)cc2)n[nH]c1NCc1ccc(O)cc1` [reference compound], the Kd (on JAK2; on JAK3; in assay [1]) was less than 50 nM in each case. In addition, the “RCK:JAK2 selectivity ratio” value on JAK2 is “D (D represents Kd(JAK2): Kd (RCK)<1)”. Also, the “RCK:JAK3 selectivity ratio” value on JAK3 is listed as “D (D represents Kd (JAK3): Kd(RCK)<1)”.
With `NC(=O)c1c(Nc2ccc(N3CCC(N4CCCC4)CC3)nc2)n[nH]c1NCc1ccc(O)cc1` [reference compound], the Kd (on JAK2; on JAK3; in assay [1]) was less than 50 nM each time. The “RCK:JAK2 selectivity ratio” value at JAK2 is reported as “D (D represents Kd(JAK2): Kd (RCK)<1)”. For the same compound, on JAK3, the “RCK:JAK3 selectivity ratio” value is reported as “C (C represents 1<Kd (JAK3): Kd (RCK)<10)”.
Take `CN(C)c1ccc(Nc2n[nH]c(NCc3ccc(O)cc3)c2C(N)=O)cc1` [reference compound]: at JAK2, the Kd is less than 50 nM and the “RCK:JAK2 selectivity ratio” value is reported as “D (D represents Kd(JAK2): Kd (RCK)<1)”. Moreover, at JAK3, the Kd lay in the range of 100 to 1000 nM and the “RCK:JAK3 selectivity ratio” value is listed as “C (C represents 1<Kd (JAK3): Kd (RCK)<10)”. Moreover, the Kd in assay [1] fell in the range of 100 to 1000 nM.
As to `NC(=O)c1c(Nc2ccc(CN3CCOCC3)cc2)n[nH]c1NCc1ccc(O)cc1` [reference compound], on JAK2, the Kd was less than 50 nM and the “RCK:JAK2 selectivity ratio” value is recorded as “D (D represents Kd(JAK2): Kd (RCK)<1)”. At JAK3, the Kd is less than 50 nM and the “RCK:JAK3 selectivity ratio” value is on record as “D (D represents Kd (JAK3): Kd(RCK)<1)”. Further, in assay [1], the Kd is less than 50 nM.
For the compound `COc1cccc(Nc2n[nH]c(NCc3ccc(O)cc3)c2C(N)=O)c1` [reference compound], at JAK2, the Kd is less than 50 nM and the “RCK:JAK2 selectivity ratio” value is on record as “D (D represents Kd(JAK2): Kd (RCK)<1)”. At JAK3, the Kd is less than 50 nM and the “RCK:JAK3 selectivity ratio” value was “D (D represents Kd (JAK3): Kd(RCK)<1)”. Moreover, in assay [1], the Kd is less than 50 nM.
Take `NC(=O)c1c(Nc2ccc(NC(=O)c3ccc(F)cc3)cc2)n[nH]c1NCc1ccc(O)cc1` [reference compound]: at JAK2, the Kd was less than 50 nM and the “RCK:JAK2 selectivity ratio” value is reported as “C (C represents 1<Kd (JAK2): Kd (RCK)<10)”. In addition, on JAK3, the Kd was less than 50 nM and the “RCK:JAK3 selectivity ratio” value was “C (C represents 1<Kd (JAK3): Kd (RCK)<10)”. Also, the Kd in assay [1] was less than 50 nM.
Turning to `NC(=O)c1c(Nc2ccc(-c3cc[nH]n3)cc2)n[nH]c1NCc1ccc(O)cc1` [reference compound], the Kd (at JAK2; at JAK3; in assay [1]) was less than 50 nM in each case. Further, the “RCK:JAK2 selectivity ratio” value at JAK2 is “D (D represents Kd(JAK2): Kd (RCK)<1)”. In addition, the “RCK:JAK3 selectivity ratio” value on JAK3 is on record as “C (C represents 1<Kd (JAK3): Kd (RCK)<10)”.
Regarding `COc1ccccc1C(=O)Nc1ccc(Nc2n[nH]c(NCc3ccc(O)cc3)c2C(N)=O)cc1` [reference compound], the Kd (on JAK2; at JAK3; in assay [1]) was less than 50 nM each time. In addition, on JAK2, the “RCK:JAK2 selectivity ratio” value was “B (B represents 10<Kd(JAK2): Kd (RCK)<100)”. In addition, the “RCK:JAK3 selectivity ratio” value on JAK3 is “B (B represents 10<Kd (JAK3): Kd (RCK)<100)”.
Take `COc1cccc(C(=O)Nc2ccc(Nc3n[nH]c(NCc4ccc(O)cc4)c3C(N)=O)cc2)c1` [reference compound]: on JAK2, the Kd is less than 50 nM and the “RCK:JAK2 selectivity ratio” value was “C (C represents 1<Kd (JAK2): Kd (RCK)<10)”. Further, at JAK3, the Kd is less than 50 nM and the “RCK:JAK3 selectivity ratio” value is “B (B represents 10<Kd (JAK3): Kd (RCK)<100)”. Further, in assay [1], the Kd was less than 50 nM.
Regarding `COc1ccc(C(=O)Nc2ccc(Nc3n[nH]c(NCc4ccc(O)cc4)c3C(N)=O)cc2)cc1` [reference compound], the Kd (at JAK2; on JAK3; in assay [1]) was less than 50 nM each time. Further, the “RCK:JAK2 selectivity ratio” value on JAK2 is reported as “B (B represents 10<Kd(JAK2): Kd (RCK)<100)”. The “RCK:JAK3 selectivity ratio” value on JAK3 is reported as “B (B represents 10<Kd (JAK3): Kd (RCK)<100)”.
As to `CC(C)C1CCN(c2ccc(Nc3n[nH]c(NCc4ccc(O)cc4)c3C(N)=O)cc2)CC1` [reference compound], on JAK2, the Kd was in the range of 100 to 1000 nM and the “RCK:JAK2 selectivity ratio” value is listed as “C (C represents 1<Kd (JAK2): Kd (RCK)<10)”. In addition, at JAK3, the Kd was in the range of 100 to 1000 nM and the “RCK:JAK3 selectivity ratio” value is reported as “C (C represents 1<Kd (JAK3): Kd (RCK)<10)”. Moreover, in assay [1], the Kd was 50 to 100 nM.
In the case of `NC(=O)c1c(Nc2ccc(N3CCOCC3=O)cc2)n[nH]c1NCc1ccc(O)cc1` [reference compound], the Kd (at JAK2; at JAK3; in assay [1]) was less than 50 nM each time. The “RCK:JAK2 selectivity ratio” value at JAK2 is given as “D (D represents Kd(JAK2): Kd (RCK)<1)”. Also, at JAK3, the “RCK:JAK3 selectivity ratio” value is “C (C represents 1<Kd (JAK3): Kd (RCK)<10)”.
